Measured values reported in patent US10894021B2, “Compositions of xanthorrhizol and tocochromanol (tocotrienol), and methods of use” (American River Nutrition, LLC, priority 2017, dated 2021).
Like-named read-outs stand apart in the source and are kept apart here.

Columns and labels:
[1] = system: murine B16 melanoma cells; assay: Cell growth assay, murine B16 melanoma cells (CellTiter 96 Aqueous One, 48 h); assay type: cell-based; details: for suppression of the growth of B16 cells: P>0.05
Method: (§1) Cultures of cells, seeded in 0.1 mL medium with a density of 1,500 DU145 cells/well or 1,200 B16 cells/well in a 96-well plate, were incubated for 24 h at 37° C. in a humidified atmosphere of 5% CO2. At 24 h, the medium was decanted from each well and replaced with 0.1 mL fresh medium containing different concentrations of the test agents. Incubation continued for additional 48 h (B16) or 72 h (DU145). Following a quick rinse with 0.1 mL Hank's Balanced Salt Solution (HBSS), the 48-h (B16) or 72-h (DU145) cell populations were determined by adding 20 μL of CellTiter 96® Aqueous One Solution (Promega, Madison, Wis.) to each well; plates were held in the dark at 37° C. for 2 h and then read with a Synergy HT multi-plate reader (Biotek Instruments, Inc., Winooski, Vt.) and analyzed using the Gen5™ software (Biotek Instruments, Inc.). Absorbances from wells containing cell-free medium were used as baselines and were deducted from those of other cell-containing wells. The IC50 value is the concentration of xanthorrhizol required to suppress the net increase in cell number by 50%.
(§2) One-way analysis of variance (ANOVA) and Kruskal-Wallis tests were performed to assess the differences between groups using Prism® 7.0 software (GraphPad Software Inc., San Diego, Calif.). Differences in means were analyzed by Dunnett's multiple comparison test unless specified otherwise. Values were mean±standard error of mean (SEM). Levels of significance were designated as P<0.05. […] The constant-ratio combination design of xanthorrhizol and d-δ-tocotrienol in our study allowed automated creation of the classic isobologram by using the CompuSyn software. CI values lower than 1 indicate synergistic effect of the agents (Tallarida 2006).
(§3) Murine B16 melanoma cells were cultured in Dulbecco's Modified Eagle's Medium (DMEM) supplemented with 10% FBS, 1% penicillin-streptomycin and 0.8% gentamicin. For optimal growth, cells were incubated at 37° C. in a humidified atmosphere of 5% CO2. d-δ-Tocotrienol and xanthorrhizol were pre-dissolved in ethyl alcohol. All treated cultures contained 0.1% (v/v) of ethyl alcohol.

[2] = system: murine B16 melanoma cells; assay: Cell cycle analysis by flow cytometry (propidium iodide DNA content), B16 cells; assay type: cell-based; details: 24-h; for percentage of cells at the G1 phase: mean±SEM, control 56.1±1.6%, no significant change
Method: Cells were seeded in 25 cm^2 flasks (Becton Dickinson Labware, Franklin Lakes, N.J.) at 1×10^6 cells (B16) per flask with 3 mL medium/flask and incubated for 24 h. Medium was then decanted and cultures were replenished with fresh medium containing the test agents that had been dissolved in ethyl alcohol. Following an additional 24-h incubation, adherent cells were harvested by trypsinization and pelleted by low speed centrifugation at 500 g for 5 min. Cell pellets were gently fixed in 1 mL of 70% ethanol-PBS mixture at −20° C. overnight and washed with PBS before 5×10^5 cells were re-suspended in 500 μL of PBS containing freshly prepared propidium iodide and RNase A (Roche Diagnostics, Indianapolis, Ind.) and incubated at 37° C. in the dark for 30 min as described (Yeganehjoo, DeBose-Boyd et al. 2017). Aliquots of 200 μL of the stained cells were analyzed for DNA content using a BD LSR Fortessa flow cytometer (BD Biosciences, San Jose, Calif.). The distribution of cells in the G1 and S phases of the cell cycle was determined using MultiCycle AV software (Phoenix Flow Systems, San Diego, Calif.).
as §3
The effect of blends of xanthorrhizol and d-δ-tocotrienol were evaluated on the cell cycle distribution of murine B16 melanoma cells (FIG. 4). At 0-h as baseline, the percentages of cells in the G1, S, and G2 phases of cell cycle were 54.1±0.7%, 27.6±0.4%, and 18.3±0.8% (mean±SEM), respectively. Following a 24-h incubation […], these percentages were relatively stable for the control group (56.1±1.6%, 32.1±0.6% and 11.7±1.9% for G1, S and G2 phases, respectively).

[3] = system: murine B16 melanoma cells; details: McAnally, Gupta et al. 2007, read-out: previous reported IC50, concentration required to elicit 50% of growth inhibition; cited from earlier work
[4] = system: human DU145 prostate carcinoma cells; assay: Cell growth assay, human DU145 prostate carcinoma cells (CellTiter 96 Aqueous One, 72 h); assay type: cell-based; details: for concentration achieving 90% of growth suppression: individual agent (FIG. 6)
Method: as §1, §2
Human DU145 prostate carcinoma cells were cultured in Roswell Park Memorial Institute ([…]) medium supplemented with 10% Fetal Bovine Serum (FBS; Fisher Scientific, Houston, Tex.), 1% penicillin-streptomycin (Fisher Scientific), and 0.8% gentamicin (Fisher Scientific).

[5] = 16.25 μmol/L xanthorrhizol, versus control

| SMILES | suppression of the growth of B16 cells ([1]; 10 μmol/L d-δ-tocotrienol applied individually) [%] | suppression of the proliferation of murine B16 melanoma cells ([1]; d-δ-tocotrienol 0-40 μmol/L) | percentage of cells at the G1 phase ([2]; 5 μmol/L d-δ-tocotrienol) [%] | IC50 [3] [µM] | concentration achieving 90% of growth suppression ([4]; DU145 cells) [µmol/L] | suppression of the growth of B16 cells ([1]; 16.25 μmol/L xanthorrhizol applied individually) | IC50 ([1]; B16 cells, 48 h incubation, read-out: IC50, concentration required to elicit 50% of growth inhibition) [µM] | suppression of the proliferation of murine B16 melanoma cells ([1]; xanthorrhizol 0-200 μmol/L) | G1/S ratio, indicator of cell cycle arrest [2, 5] | percentage of cells at the S phase [2, 5] | percentage of cells at the G1 phase ([2]; 16.25 μmol/L xanthorrhizol) [%] | IC50 ([4]; DU145 cells, 72 h incubation, read-out: IC50, suppression of the proliferation of DU145 cells) [µM] | suppression of the proliferation of human DU145 prostate carcinoma cells ([4]; xanthorrhizol 0-200 μmol/L) |
| --- | --- | --- | --- | --- | --- | --- | --- | --- | --- | --- | --- | --- | --- |
| CC(C)=CCC/C(C)=C/CC/C(C)=C/CC[C@]1(C)CCc2cc(O)cc(C)c2O1 [d-δ-tocotrienol] | ~12 | concentration-dependent suppression | 59.2±1.3 | 14 | 32 | – | – | – | – | – | – | – | – |
| CC(C)=CCC[C@@H](C)c1ccc(C)c(O)c1 [xanthorrhizol] | – | – | – | – | 182 | approximately 15% | 65 | concentration-dependent suppression | significantly higher | decreased | 59.5±0.7 | 101 | concentration-dependent suppression |
